Consider three molecules from patent US12723074B2, “Medicament for treatment and/or prevention of cancer” (TORAY INDUSTRIES, INC., priority 2020, dated 2026).

For assay [1], the system named is Human breast cancer cells BT474. Kind of assay: Antitumor effect in human breast cancer BT474-bearing NOG mice (combination with axitinib). Type of assay: in vivo. The following applies: day 63 after cancer bearing. As for the experimental part:
Likewise, in vivo antitumor effect in cancer-bearing mouse was evaluated by administering a combination of the anti-CAPRIN-1 antibody (anti-CAPRIN-1 humanized antibody #1) produced in Example 1, and an anti-vascular endothelial growth factor receptor (VEGFR) inhibitor.
Specifically, the antitumor effect of the combination of the anti-CAPRIN-1 antibody and axitinib according to the present invention was studied using NOG mice in which human-derived cancer cells expressing CAPRIN-1 protein were subcutaneously transplanted. Human breast cancer cells BT474 were subcutaneously transplanted at 2×10^7 cells per mouse as a mixture with Matrigel and allowed to grow until a tumor became approximately 100 mm^3 to prepare cancer-bearing mice. Each anti-CAPRIN-1 antibody produced in Example 1 was administered at 10 mg/kg once a week to the tail veins of five cancer-bearing mice described above. To these mice, administration of axitinib was started simultaneously with the initial administration of the anti-CAPRIN-1 antibody, and the administration was performed at 5 or 25 mg/kg twice a day for 9 days and then once a day for 15 days.
For a comparative control group, the same dose of the same anti-CAPRIN-1 antibody as above was administered once a week to cancer-bearing mice. For another comparative control group, axitinib was administered at the same administration intervals and dose as above to other individuals of cancer-bearing mice. Cancer-bearing mice in a non-treatment group were used as negative controls. After the start of administration, the sizes of cancers in the cancer-bearing mice were measured over time using calipers. Tumor volumes were calculated according to a standard method using a calculation expression: (Length of the major axis of the tumor)×(Length of the minor axis of the tumor)^2×0.5.

In assay [2] the test system is gastroesophageal junction cancer or gastric adenocarcinoma. Particulars: RAINBOW trial patients; cited from earlier work.
Assay [3] concerns Human breast cancer cells BT474. Description: Antitumor effect in human breast cancer BT474-bearing NOD-SCID mice (combination with bevacizumab). Type of assay: in vivo. Particulars: day 41 after cancer bearing, antibody 10 mg/kg once a week, bevacizumab 1.25 mg/kg once a week.
Description: Human breast cancer cells BT474 were subcutaneously transplanted at 2×10^7 cells per mouse as a mixture with Matrigel (Sigma) and allowed to grow until a tumor became approximately 100 mm^3 to prepare cancer-bearing mice.
For a comparative control group, the same dose of the same anti-CAPRIN-1 antibody as above was administered once a week to cancer-bearing mice. […] Cancer-bearing mice in a non-treatment group were used as negative controls. After the start of administration, the sizes of cancers in the cancer-bearing mice were measured over time using calipers. Tumor volumes were calculated according to a standard method using a calculation expression: (Length of the major axis of the tumor)×(Length of the minor axis of the tumor)^2×0.5.
The target in assay [4] is T1, CAPRIN-1 on the cell membrane surface of human cancer cells (Homo sapiens, UniProt Q14444).
T1 construct: endogenous in cells; host or cells: BT-474, HT-29, QG56, H1650, NCI-N87, HEC-1-A, 22Rv1, Panc10.5, Hep3B, SKOV3, Caki-2, U-87MG, T24, OE33, OCI-AIM5, Ramos, TGBC14TKB, HT-1080, G-361
T1 sequence (Q14444 1-709): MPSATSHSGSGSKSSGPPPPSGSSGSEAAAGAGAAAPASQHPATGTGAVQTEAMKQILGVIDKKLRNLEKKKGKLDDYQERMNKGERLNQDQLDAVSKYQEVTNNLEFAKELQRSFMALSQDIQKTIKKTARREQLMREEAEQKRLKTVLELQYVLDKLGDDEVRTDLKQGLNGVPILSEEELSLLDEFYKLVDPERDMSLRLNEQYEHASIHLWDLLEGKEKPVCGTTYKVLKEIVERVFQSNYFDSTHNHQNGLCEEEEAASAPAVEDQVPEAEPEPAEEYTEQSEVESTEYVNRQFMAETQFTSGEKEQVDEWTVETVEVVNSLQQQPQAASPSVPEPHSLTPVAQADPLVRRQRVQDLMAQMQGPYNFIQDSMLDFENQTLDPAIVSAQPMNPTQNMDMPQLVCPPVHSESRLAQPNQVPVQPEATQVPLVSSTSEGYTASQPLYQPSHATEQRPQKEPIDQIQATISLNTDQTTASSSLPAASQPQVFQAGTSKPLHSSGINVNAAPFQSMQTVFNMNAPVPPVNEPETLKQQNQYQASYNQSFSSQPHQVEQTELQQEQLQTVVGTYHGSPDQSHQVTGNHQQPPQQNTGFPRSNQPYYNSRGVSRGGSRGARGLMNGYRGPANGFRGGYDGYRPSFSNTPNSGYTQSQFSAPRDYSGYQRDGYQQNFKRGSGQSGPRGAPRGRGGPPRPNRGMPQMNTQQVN
Description: Flow cytometry reactivity with cell membrane surface of human cancer cells expressing CAPRIN-1. Particulars: human cancer cells BT-474, HT-29, QG56, H1650, NCI-N87, HEC-1-A, 22Rv1, Panc10.5, Hep3B, SKOV3, Caki-2, U-87MG, T24, OE33, OCI-AIM5, Ramos, TGBC14TKB, HT-1080, G-361. In kind it is binding. The source says:
Reactivity of each monoclonal antibody with human cancer cells confirmed to express CAPRIN-1 protein on the cell membrane surface was further confirmed by flow cytometry.
(§1) The reactivity of the anti-CAPRIN-1 antibody with cancer cells without permeation treatment of cell membrane was examined by flow cytometry to confirm that a portion of CAPRIN-1 was expressed on the cell membrane surface of cancer cells as shown in Examples given below.
On the technique in general: In flow cytometry, cells or beads pass a laser one at a time.

The target in assay [5] is T2, CAPRIN-1 on the cell membrane surface of mouse kidney cancer cells (Renca) and mouse breast cancer cells (4T1) (Mus musculus, UniProt Q60865).
T2 construct: endogenous in cells; host or cells: Renca, 4T1
T2 sequence (Q60865 1-707): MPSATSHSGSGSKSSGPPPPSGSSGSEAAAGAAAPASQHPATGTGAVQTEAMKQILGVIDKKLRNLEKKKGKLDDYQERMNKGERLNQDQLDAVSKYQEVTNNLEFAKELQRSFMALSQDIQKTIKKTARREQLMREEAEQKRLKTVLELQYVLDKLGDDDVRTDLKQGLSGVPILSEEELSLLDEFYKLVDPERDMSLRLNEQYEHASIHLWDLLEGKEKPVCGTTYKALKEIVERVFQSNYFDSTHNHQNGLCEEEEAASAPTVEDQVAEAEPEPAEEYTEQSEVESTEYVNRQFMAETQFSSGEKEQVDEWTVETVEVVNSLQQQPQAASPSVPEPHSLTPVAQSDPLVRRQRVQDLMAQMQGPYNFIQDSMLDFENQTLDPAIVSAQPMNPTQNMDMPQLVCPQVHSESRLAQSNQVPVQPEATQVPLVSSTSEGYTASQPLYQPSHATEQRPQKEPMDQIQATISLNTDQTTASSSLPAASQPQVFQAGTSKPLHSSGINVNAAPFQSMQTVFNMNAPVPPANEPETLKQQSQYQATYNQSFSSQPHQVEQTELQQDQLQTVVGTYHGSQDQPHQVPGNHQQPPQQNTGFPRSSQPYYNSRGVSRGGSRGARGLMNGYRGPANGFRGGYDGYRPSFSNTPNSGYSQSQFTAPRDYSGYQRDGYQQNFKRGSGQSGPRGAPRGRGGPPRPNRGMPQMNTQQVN
Description: Flow cytometry reactivity with cell membrane surface of mouse cancer cells expressing CAPRIN-1. Type of assay: binding. The following applies: mouse cancer cells Renca and 4T1.
Description: as §1

With `CNC(=O)c1ccccc1Sc1ccc2c(/C=C/c3ccccn3)n[nH]c2c1` [axitinib], the results for the “tumor volume when the tumor volume of the negative control was defined as 100%” value in assay [1] (axitinib 5 mg/kg (alone or with antibody 10 mg/kg once a week)) and in assay [1] (axitinib 25 mg/kg (alone or with antibody 10 mg/kg once a week)) were 39% and 27%, respectively.

For the molecule `CC(=O)O[C@H]1C(=O)[C@@]2(C)[C@H]([C@H](OC(=O)c3ccccc3)[C@]3(O)C[C@H](OC(=O)[C@H](O)[C@@H](NC(=O)c4ccccc4)c4ccccc4)C(C)=C1C3(C)C)[C@]1(OC(C)=O)CO[C@@H]1C[C@@H]2O` [paclitaxel], in assay [2], the median overall survival was 7.4 months and the median progression-free survival is on record as 2.9 months.

B1: anti-CAPRIN-1 humanized antibody #1: humanized IgG1 antibody with CDRs of the mouse anti-CAPRIN-1 monoclonal antibody (heavy chain SEQ ID NO: 114, light chain SEQ ID NO: 115) (antibody, listed as Mus musculus)
heavy: GPELVKPGASVKMSCKASGYTFTSYVMHWVKQKPGQGLEWIGYINPYNDGTKYNEKFKGKATLTSDKSSSTAYMELSSLTSEDSAVYYCARRYYYGSSGGYFDVWAQDHVRT
light: DVQITQSPSYLAASPGETITINCRASKSISKYLAWYQEKPGKTNKLLIYSGSTLQSGIPSRFSGSGSGTDFTLTISSLEPEDFAMYYCQQHNEYPYTFGGGTKLEIKR
With B1, the “tumor volume when the tumor volume of the negative control was defined as 100%” value in assay [3] was found to be 52%; in assay [1] (antibody alone 10 mg/kg once a week), 40%. The “reactivity with the cell membrane surface of cancer cells (fluorescence intensity vs IgG control)” value in assay [4] and in assay [5] was “reacted strongly” throughout.
